Patent US20230159527A1, “COMPOUNDS AS BCL-2 INHIBITORS” (Fochon Pharmaceuticals, Ltd., priority 2020, published 2023)
Where two headings read alike, the source gives them in different places.

Legend:
[1] = test system: DoHH2 cells; assay: Cell proliferation assay, DoHH2 cells (MTS, 120 h); type: cell-based
Protocol: MTS testing kit was purchased from Promega (Madison, Wis., USA). The RPMI-1640, Fetal bovine serum and Penicillin-Streptomycin were purchased from BI (Biological Industries, Beit Haemek, Israel). Dimethyl sulfoxide (DMSO) was purchased from Sigma (St. Louis, Mo., USA). DoHH2 (DSMZ catalog #: ACC47) cells were cultured in RPMI-1640 supplemented with Penicillin-Streptomycin and 10% FBS.
To investigate whether a compound is able to inhibit the activity of BCL-2 in cells, a mechanism-based assay using DoHH2 lines was developed. In this assay, the inhibition of BCL-2 was reflected by the inhibition of cell proliferation of DoHH2 cells. Cells were plated into 96-well plates at the optimized cell density of 5000 cells/well. Plates were incubated at 37° C., with 5% CO2 for 4h. Compounds were serially diluted and added to the plates with the final concentrations of 10000, 3333.3, 1111.1, 370.4, 123.5, 41.2, 13.7, 4.6 and 1.5 nM. Plates were incubated at 37° C., with 5% CO2 for 120 h. 20 μl MTS was added into each well and the plates were incubated at 37° C., with 5% CO2 for exactly 2 h. The absorbance was measured by a microplate reader at 490 nm. IC50 was calculated using GraphPad Prism 5.0 software.

[2] = test system: Toledo cells; assay: Cell proliferation assay, Toledo cells (MTS, 72 h); type: cell-based; conditions: Toledo cells, MTS, read-out: Toledo IC50
Outline: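 IC50 was derived from 490 nm absorbance after a 2 h MTS step. Before that, compounds at 1.5–10000 nM final (nine points) acted on Toledo cells for 72 h at 37 °C, 5% CO2. Cells were seeded at 30000/well in 10% FBS RPMI-1640 and rested 4 h before dosing.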

CC(C)c1ccccc1[C@@H]1CCCN1C1CC2(CCN(c3ccc(C(=O)NS(=O)(=O)c4cc5c(c([N+](=O)[O-])c4)O[C@@H](CN4CCOCC4)CO5)c(Oc4cnc5[nH]ccc5c4)c3)CC2)C1 (single isomer, unassigned) [Example E-35, 2-((1H-pyrrolo [2,3-b]pyridin-5-yl)oxy)-4-(2-((R or S)-2-(2-isopropylphenyl)pyrrolidin-1-yl)-7-azaspiro[3.5]nonan-7-yl)-N-(((S)-2-(morpholinomethyl)-8-nitro-2,3-dihydrobenzo [b][1,4]dioxin-6-yl)sulfonyl) benzamide]
IC50 ([1]; Homo sapiens, DOHH-2): ≤ 1 nM | IC50 ([2]; Homo sapiens): 7 nM

CC(C)c1ccccc1[C@@H]1CCC[C@@H]1N1CC2(CCN(c3ccc(C(=O)NS(=O)(=O)c4cnc(NC[C@H]5CC[C@](C)(O)CC5)c([N+](=O)[O-])c4)c(Oc4cnc5[nH]ccc5c4)c3)CC2)C1 (single isomer, unassigned) [Example A-136, 2-((1H-pyrrolo[2,3-b]pyridin-5-yl)oxy)-N-((6-((((1r,4r)-4-hydroxy-4-methylcyclohexyl)methyl)amino)-5-nitropyridin-3-yl)sulfonyl)-4-(2-((1R,2R or 1S, 2S)-2-(2-isopropylphenyl)cyclo-pentyl)-2,7-diazaspiro[3.5]nonan-7-yl)benzamide]
IC50 ([1]; Homo sapiens, DOHH-2): ≤ 1 nM | IC50 ([2]; Homo sapiens): 1 nM

CC(C)c1ccccc1C1COCCN1C1CC2(CCN(c3ccc(C(=O)NS(=O)(=O)c4cnc(NCC5CCC(N=S(C)(C)=O)CC5)c([N+](=O)[O-])c4)c(Oc4cnc5[nH]ccc5c4)c3)CC2)C1 (single isomer, unassigned) [Example A-57, 2-((1H-pyrrolo[2,3-b]pyridin-5-yl)oxy)-N-((6-((((1r,4r)-4-((dimethyl (oxo)-λ^6-sulfanylidene)amino)cyclohexyl)methyl)amrno)-5-nitro-pyridin-3-yl)sulfonyl)-4-(2-((R or S)-3-(2-isopropylphenyl)morpho-lino)-7-azaspiro[3.5]nonan-7-yl) benzamide]
IC50 [1]: ≤ 1 nM | IC50 [2]: 2 nM

CC(C)c1ccccc1[C@@H]1COCCN1C1CC2(CCN(c3ccc(C(=O)NS(=O)(=O)c4cnc(NC[C@H]5CC[C@](C)(O)CC5)c([N+](=O)[O-])c4)c(Oc4cnc5[nH]cc(Cl)c5c4)c3)CC2)C1 (single isomer, unassigned) [Example A-129, 2-((3-chloro-1H-pyrrolo[2,3-b]pyridin-5-yl)oxy)-N-((6-((((1r,4r)-4-hydroxy-4-methylcyclohexyl)methyl)amino)-5-nitropyridin-3-yl)sulfonyl)-4-(2-((R or S)-3-(2-isopropylphenyl)morpholino)-7-azaspiro[3.5]nonan-7-yl) benzamide]
IC50 ([1]; Homo sapiens, DOHH-2): ≤ 1 nM | IC50 ([2]; Homo sapiens): 1 nM

CC(C)c1ccccc1C1CN(C)CCN1C1CC2(CCN(c3ccc(C(=O)NS(=O)(=O)c4cnc(NCC5CCC(C)(O)CC5)c([N+](=O)[O-])c4)c(Oc4cnc5[nH]ccc5c4)c3)CC2)C1 (single isomer, unassigned) [Example A-62, (R or S)-2-((1H-pyrrolo[2,3-b]pyridin-5-yl)oxy)-N-((6-(((4-hydroxy-4-methylcyclohexyl)methyl)amino)-5-nitropyridin-3-yl)sulfonyl)-4-(2-(2-(2-isopropylphenyl)-4-methyl-piperazin-1-yl)-7-azaspiro[3.5]nonan-7-yl)benzamide]
IC50 ([1]; Homo sapiens, DOHH-2): ≤ 1 nM | IC50 ([2]; Homo sapiens): 1 nM

O=C(NS(=O)(=O)c1cc2c(c([N+](=O)[O-])c1)O[C@H](CN1CCOCC1)CO2)c1ccc(N2CCC3(CC2)CC(N2CCOC[C@H]2c2ccccc2C2CC2)C3)cc1Oc1cnc2[nH]ccc2c1 (single isomer, unassigned) [Example E-41, 2-((1H-pyrrolo [2,3-b]pyridin-5-yl)oxy)-4-(2-((R or S)-3-(2-cyclopropylphenyl)morpholino)-7-azaspiro[3.5]nonan-7-yl)-N-(((R)-2-(morpholinomethyl)-8-nitro-2,3-dihydrobenzo [b][1,4]dioxin-6-yl)sulfonyl) benzamide]
IC50 ([1]; Homo sapiens, DOHH-2): ≤ 1 nM | IC50 ([2]; Homo sapiens): 1 nM
